Source: ChEMBL document CHEMBL5608235, “Tricyclic Benzo[1,3]oxazinyloxazolidinones as Potent Antibacterial Agents against Drug-Resistant Pathogens” (J Med Chem, 2024)
In brackets after ≈: the same amount, converted by molar mass. Activity calls are given as the source filed them. No cut-off for these calls is given here.

Assays:
Staphylococcus aureus [1] = assay: Antibacterial activity against methicillin resistant Staphylococcus aureus clinical isolate 20-1 assessed as inhibition of bacterial growth incubated for 7 days by alamar blue assay; format: functional; settings: clinical isolate 20-1, 168 h, time 7 day
Enterococcus = assay: Antibacterial activity against vancomycin resistant Enterococcus clinical isolate 20-1 assessed as inhibition of bacterial growth incubated for 7 days by alamar blue assay; format: functional; settings: clinical isolate 20-1, 168 h, time 7 day
[2] = Metabolic stability in ICR mouse liver microsomes assessed as substrate remaining at 10 uM incubated for 60 mins in presence of NADPH by LC-MS/MS analysis; format: ADME, Microsome; settings: read-out: Stability
[3] = AUC (0 to t) in BALB/c mouse at 10 mg/kg,po administration measured upto 24 hrs by LC-MS/MS analysis; format: ADME, organism-based; settings: in vivo
[4] = Drug concentration in BALB/c mouse plasma at 10 mg/kg,po administration measured within 15 mins by LC-MS/MS analysis; format: ADME, organism-based
Staphylococcus aureus [5] = assay: Antibacterial activity against methicillin resistant Staphylococcus aureus ATCC 33592 infected in cyclophosphamide-induced immunosuppressed Kunming mouse by measuring survival rate of mouse at 10 mg/kg,po administration measured for 7 days; format: functional; settings: ATCC 33592, 168 h, time 7 day
Staphylococcus aureus [6] = assay: (§1) Antibacterial activity against methicillin resistant Staphylococcus aureus ATCC 33592 infected in cyclophosphamide-induced immunosuppressed Kunming mouse assessed as reduction of bacterial load in liver at 10 to 50 mg/kg,po administration measured after 24 hrs by hematoxylin and eosin staining based microscopy; format: functional, organism-based; settings: dose 10-50 mg/kg
Staphylococcus aureus [7] = assay: Antibacterial activity against methicillin resistant Staphylococcus aureus ATCC 33592 infected in cyclophosphamide-induced immunosuppressed Kunming mouse assessed as decrease in IL-6 level at po administration measured after 24 hrs by ELISA; format: functional, organism-based
Staphylococcus aureus [8] = assay: Antibacterial activity against methicillin resistant Staphylococcus aureus ATCC 33592 infected in cyclophosphamide-induced immunosuppressed Kunming mouse assessed as increase in IL-10 level at po administration measured after 24 hrs by ELISA; format: functional, organism-based
Staphylococcus aureus [9] = assay: as §1, with “reduction” for “reduction of bacterial load”, “histopathological change in heart” for “liver”; format: functional, organism-based; settings: dose 10-50 mg/kg
Staphylococcus aureus [10] = assay: as §1, with “reduction” for “reduction of bacterial load”, “inflammatory cell infiltration in lung” for “liver”; format: functional, organism-based; settings: dose 10-50 mg/kg
Cell membrane [11] = assay: Disruption of cell membrane integrity in Staphylococcus aureus ATCC 25923 assessed as increase in blue fluorescence at 1 ug/ml incubated for 1 hr by […] and propidium iodide double staining based confocal microscopic analysis; format: cell membranes; settings: dose 1.0 µg/ml
Cell membrane [12] = assay: Disruption of cell membrane in methicillin resistant Staphylococcus aureus ATCC 33592 assessed as cell lysis at 0.5 ug/ml incubated for 6 hrs by Scanning electron microscopic analysis; format: cell membranes; settings: dose 0.5 µg/ml
Staphylococcus aureus [13] = assay: Inhibition of biofilm formation in methicillin resistant Staphylococcus aureus ATCC 33592 at 0.1 to 10 ug/ml incubated for 48 hrs by crystal violet staining based assay; format: functional, organism-based; settings: dose 0.1-10 µg/ml
[14] = Free AUC in BALB/c mouse at 10 mg/kg,po administration measured upto 24 hrs by LC-MS/MS analysis; format: ADME, organism-based; settings: in vivo

Work on `CC(=O)NC[C@@H]1OC(=O)N2Cc3cc(-c4ccc(C#N)cc4)c(F)cc3O[C@@H]12` yielded an MIC (Staphylococcus aureus [1]) of 0.5 µg/mL (≈ 1.31 µM), an MIC (Enterococcus) of 0.5 µg/mL (≈ 1.31 µM) and a remaining at 1 h, 10 µM [2] of 100%. For the same compound, the AUC(0-t) at 24 h [3] was 62500 ng·h/mL, the concentration at 0.25 h [4] was 1000 ng/mL and the survival at 10 mg/kg (Staphylococcus aureus [5]) was 85.7%. The Activity (Staphylococcus aureus [6]) was “Active”, the Activity (Staphylococcus aureus [7]) was “Dose-Dependent Effect” and the Activity (Staphylococcus aureus [8]) was “Dose-Dependent Effect”. The Activity (Staphylococcus aureus [9]) was “Active”, the Activity (Staphylococcus aureus [10]) was “Active” and the Activity (Cell membrane [11]) was “Active”. For the same compound, the Activity (Cell membrane [12]) was “Active”, the inhibition (Staphylococcus aureus [13]) was “Active” and the fAUC [14] was 14940 ng·h/mL.
